Reference: article PMC8878452, “A Tale of Toxin Promiscuity: The Versatile Pharmacological Effects of Hcr 1b-2 Sea Anemone Peptide on Voltage-Gated Ion Channels” (Marine Drugs, 2022)
Entries after “also recorded” stand apart in the source; their conditions may differ. Bridges are numbered along the chain shown (N, C = ends). Where no end group is shown, it is not given here.

Tests used:
rKv1.6 = assay: TEVC, Kv1.6 in Xenopus oocytes; assay type: cell-based, rat; conditions: 1 µM, n ≥ 3
Source text: For the expression of Kv channels (rKv1.1, rKv1.2, rKv1.3, rKv1.4, rK1.5, rKv1.6, hKv2.1, hKv3.1, rKv4.2, hKv7.1, hKv7.2/7.3, hKv7.4, KQT1 (from the roundworm Caenorhabditis elegans), hKv10.1 (hEAG1), hKv11.1 (hERG1), and Shaker, from Drosophila melanogaster), Nav channels (rNav1.1, rNav1.2, rNav1.3, rNav1.4, hNav1.5, mNav1.6, hNav1.7, hNav1.8, and BgNav (from the cockroach Blattella germanica), as well as the hβ1 and rβ1 subunits, and Cav channels (rCav3.1, hCav3.2, and rCav3.3) in Xenopus oocytes, the linearized plasmids were transcribed using the T7 or SP6 mMESSAGEmMACHINE transcription kit (Ambion, Austin, TX, USA). Mature female animals were purchased from Nasco (Fort Atkinson, WI, USA) and were housed in the Aquatic Facility (KU Leuven) in compliance with the regulations of the European Union (EU) concerning the welfare of laboratory animals as declared in Directive 2010/63/EU. The use of X. laevis oocytes was approved by the Animal Ethics Committee of the KU Leuven, with the license number P186/2019. […]
Whole-cell currents of oocytes were recorded 1 to 3 days after RNA injection. […] The current–voltage relationships were determined by 50 ms step depolarizations between −90 and +65 mV using 5 or 10 mV increments. All electrophysiological data were analyzed following the procedures described by Peigneur et al., 2012 [20].
(§1) All values were expressed as means ± SEM. […]

hKv11.1 (hERG1) = assay: TEVC, hERG in Xenopus oocytes; assay type: cell-based, human
Source text: (§2) For the expression of Kv channels (rKv1.1, rKv1.2, rKv1.3, rKv1.4, rK1.5, rKv1.6, hKv2.1, hKv3.1, rKv4.2, hKv7.1, hKv7.2/7.3, hKv7.4, KQT1 (from the roundworm Caenorhabditis elegans), hKv10.1 (hEAG1), hKv11.1 (hERG1), and Shaker, from Drosophila melanogaster), Nav channels (rNav1.1, rNav1.2, rNav1.3, rNav1.4, hNav1.5, mNav1.6, hNav1.7, hNav1.8, and BgNav (from the cockroach Blattella germanica), as well as the hβ1 and rβ1 subunits, and Cav channels (rCav3.1, hCav3.2, and rCav3.3) in Xenopus oocytes, the linearized plasmids were transcribed using the T7 or SP6 mMESSAGEmMACHINE transcription kit (Ambion, Austin, TX, USA). Mature female animals were purchased from Nasco (Fort Atkinson, WI, USA) and were housed in the Aquatic Facility (KU Leuven) in compliance with the regulations of the European Union (EU) concerning the welfare of laboratory animals as declared in Directive 2010/63/EU. The use of X. laevis oocytes was approved by the Animal Ethics Committee of the KU Leuven, with the license number P186/2019.
(§3) Stage V–VI oocytes were collected from anesthetized female X. laevis frog as previously described, with the frogs anesthetized by placement in a 0.1% tricaine solution (amino benzoic acid ethyl ester; Merck, Kenilworth, NJ, USA). Oocyte microinjection was performed using a microinjector (Drummond Scientifc®, Broomall, PA, USA), with a programmed cRNA injection volume of 4–50 nL, depending on channel subtype. The oocytes were incubated in ND96 solution (96 mM NaCl; 2 mM KCl; 1.8 mM CaCl2; 2 mM MgCl2, and 5 mM HEPES, pH 7.4), supplemented with 50 mg/L of gentamicin sulfate.
(§4) Electrophysiological measurements were performed at room temperature (18–22 °C) using the two-electrode voltage-clamp (TEVC) technique. Data were obtained using a GeneClamp 500 amplifier (Axon Instruments®, Burlingame, CA, USA) and Clampex9 software (Axon Instruments®, USA) was responsible for data acquisition and storage. Glass micropipettes were produced using glass capillaries (borosilicate WPI 1B120-6) and drawn in a WPI (World Precision Instruments®, Sarasota, FL, USA) manual stretcher. The bath and perfusion solutions were either the previously described ND96 (Nav and Kv channels) or calcium-free ND96 supplemented with 10 mM BaCl2 (Cav channels).
(§5) Whole-cell currents of oocytes were recorded 1 to 3 days after RNA injection. The current and voltage electrodes were filled with 3 M KCl, and their resistance was adjusted from 1.0 to 2.5 MΩ. Currents were sampled at 20 kHz (Nav channels) and 10 kHz (Kv and Cav channels) and filtered using a four-pole Bessel low-pass Bessel filter at 1 kHz for sodium and […] for potassium and calcium, except for the hERG ion channel in which the currents were filtered at 1 kHz. Leak subtraction was performed using a P/4 protocol. Kv1.x currents were evoked by 500 ms depolarizations to 0 mV, followed by a 500 ms pulse to −50 mV from a holding potential of −90 mV. Kv2.1, Kv3.1, Kv4.2, Kv7.x, and KQT1 currents were elicited by 700 ms pulses to +20 mV from a holding potential of −90 mV. Current traces of the hERG1 channel were elicited by applying a +40 mV prepulse for 2 s, followed by a step of −120 mV for 2 s. […] The current–voltage relationships were determined by 50 ms step depolarizations between −90 and +65 mV using 5 or 10 mV increments. All electrophysiological data were analyzed following the procedures described by Peigneur et al., 2012 [20].
as §1

rNav1.3 = assay: TEVC, Nav1.3 in Xenopus oocytes; assay type: cell-based, rat
Source text: as §2, §3, §4, §5, §1

## GTPCKCHGYIGVYWFMLAGCPNGYGYNLSCPYFLGICCVKK (disulfide 4-37, 6-30, 20-38 (inferred)) [Hcr 1b-2]
rKv1.6; 500 ms depolarization to 0 mV from −90 mV, mean ± SEM
  activity (inhibition of current), Kv1.6: 31.5 ± 6.7%
rKv1.6; TEVC, ND96 pH 7.4, 18–22 °C
  effect on potassium current, Kv1.6: inhibition
hKv11.1 (hERG1); 1 µM
  gating-modifier effect (voltage-current relationship), hERG: stronger shift; also recorded: strong shift towards more positive potentials; also recorded: significantly shift the current-voltage relationship of hERG
hKv11.1 (hERG1); 1 µM, TEVC, ND96 pH 7.4, 18–22 °C, n = 3
  effect on potassium current, hERG: inhibition; also recorded: strong hERG modulator
hKv11.1 (hERG1); 1 µM, peak current, control (ND96) −13.7 ± 0.5, mean ± SEM, n = 3
  Vhalf activation, hERG (peak): 12.6 ± 0.4 mV
hKv11.1 (hERG1); 1 µM, tail current, control (ND96) −22.9 ± 0.6, mean ± SEM, n = 3
  Vhalf activation, hERG (tail): 0.6 ± 0.7 mV
hKv11.1 (hERG1); human, Xenopus laevis oocytes expressing hKv11.1 (hERG1), pH 7.4, +40 mV prepulse 2 s, then −120 mV 2 s, mean ± SEM, n = 3, read-out: activity (inhibition of current), hERG
  inhibition at 1 µM: 51.7 ± 7.6%
rNav1.3; 1 µM vs control (ND96)
  Shift in Vhalf activation, Nav1.3: 5.3 mV
  Shift in Vhalf inactivation, Nav1.3: −3.4 mV
rNav1.3; 1 µM, 100 ms depolarization to 0 mV, mean ± SEM, n ≥ 3
  inhibition of peak amplitude (INa), Nav1.3: 11.2 ± 1.8%
rNav1.3; 1 µM, control (ND96) −21.2 ± 0.1, mean ± SEM, n ≥ 3
  Vhalf activation, Nav1.3: −15.9 ± 0.1 mV
rNav1.3; 1 µM, control (ND96) −29.9 ± 0.1, mean ± SEM, n ≥ 3
  Vhalf inactivation, Nav1.3: −33.3 ± 0.1 mV
